Measurements: patent publication US20250302802A1, “METHODS AND COMPOSITIONS” (VRG 145 ZRT., priority 2024, published 2025)
Like-named read-outs stand apart in the source and are kept apart here. Each block holds one compound with its values, some of them ahead of it.

Columns and labels:
[1] = tested on: central nervous system (horizontal locomotor activity); assay: Locomotor activity test; format: in vivo, rat; details: 60-90 minutes post-dose
Source text: Memantine is a neurological drug with neurological side effects at high doses, such as sedative or dissociative or psychotomimetic side effects in humans, and locomotion stimulating and motor coordination impairing effects in rodents. Therefore, as a further test to see if pharmacodynamic synergy exists also for cardinal side effects of the drug components of the combination two central nervous system side effect assessing pharmacodynamic interaction studies (locomotor activity and rotarod tests) were performed with lisinopril, memantine and their combination in rats. Male Sprague Dawley rats weighing 200-250 g at start of testing were used. Animals were acclimatized to the laboratory conditions for at least 5 days before the first experiment and kept under artificial lighting between 7:00 and 19:00 in a controlled ambient temperature of 22±2° C. One hundred animals were assigned to ten treatment groups, which were tested in parallel with appropriate randomization, time shifts and cohorts needed to exploit the capacity of test apparatus. […] Corresponding dose levels of the combination were half of the doses of the solo drug treatments. […] The test substances were dissolved in physiological saline for dosing volume of […]. The test substances were administered per os by gavage. First, the locomotor test was carried out. One week later, the same animals received the same treatment and were tested in the rotarod test. The locomotor activity test detects stimulant or sedative activity. The activity meter consisted of 16 covered Plexiglas cages (40×25×25 cm) contained within a darkened enclosure and connected to silent electronic counters. Each cage was equipped with four photocell assemblies (two at each end of the cage) 3 cm above the floor to measure the number of movements by each animal (one per cage) in the horizontal plane. The number of (horizontal) crossings by each animal (one per cage) from one pair of photocells to the other was recorded by computer in 10-minute intervals. […] The cumulated events in the period of 60-90 minutes post-dose were evaluated.

[2] = tested on: central nervous system (rotarod performance); assay: Accelerating rotarod test; format: in vivo, rat; details: any of the three dose levels: 0.6, 2, 6 mg/kg solo; 0.3+0.3, 1+1, 3+3 mg/kg combination; per os; 45 and 90 min post-dose
Method: Animals were acclimatized to the laboratory conditions for at least 5 days before the first experiment and kept under artificial lighting between 7:00 and 19:00 in a controlled ambient temperature of 22±2° C. One hundred animals were assigned to ten treatment groups, which were tested in parallel with appropriate randomization, time shifts and cohorts needed to exploit the capacity of test apparatus. The test groups comprised nine test substance treated groups, of three treatment types (lisinopril, memantine and their 1:1 combination), each administered at three dose levels, and a vehicle control group for comparison. Corresponding dose levels of the combination were half of the doses of the solo drug treatments. Thus, the tested dose levels were 0.6, 2 and 6 mg/kg for the solo treatments and 0.3+0.3, 1+1 and 3+3 mg/kg for the combination. The test substances were dissolved in physiological saline for dosing volume of 5 mg/kg. The test substances were administered per os by gavage. […] One week later, the same animals received the same treatment and were tested in the rotarod test.
The rotarod test detects neurological deficits. Rats were placed on a rod (diameter: 7 cm) rotating at a constant speed of 4 revolutions per minute for a 2-minute period. When they fell off during this period they were replaced on the rod. […] The latency to fall off was recorded (cut-off: 3 minutes). […]

[3] = tested on: cardiovascular system; assay: Cardiovascular telemetry in awake unrestrained normotensive rats; format: in vivo, rat; details: for Heart rate; difference from Vehicle treated, Mean / Mean arterial blood pressure; difference from Vehicle treated, Mean: oral gavage, post-dose period of 3-6 hours
Method: The cardiovascular parameters of normotensive rats instrumented with telemetric devices were investigated to determine whether the observed in vivo pharmacodynamic synergy exists also for cardinal side effects of the drug components of the combination. As lisinopril is an antihypertensive drug, its vasodilator and antihypertensive effects or other related cardiovascular effects may be cardinal side effects. Therefore, a cardiovascular telemetry study was performed with lisinopril, memantine and their combination in rats. Male Sprague-Dawley rats weighing 250-300 g at the start of the investigations were used. The animals were housed individually in artificially lightened chambers with a 12 h light and dark cycle (lights on at 07:00) and an ambient temperature of 20-22° C. Radiotelemetric units comprising transmitters with built in sensors (Data Sciences International, USA, Type: HD-S11) were surgically implanted into rats under sodium pentobarbital (50 mg/kg, i.p.) induced anesthesia. The rat abdomen was opened by a midline laparotomy. After visualizing the aorta, it was separated from the vena cava just caudal to the left dorsal muscular branch. A piece of 5-0 suture was placed between the vena cava and aorta so that the suture lied underneath the aorta. By this suture the aorta was temporarily occluded, and the catheter introduced into the vessel. After drying the aorta around the catheter entry site, a small amount of tissue adhesive was applied and 5-10 seconds later the suture was loosened. The bipolar ECG leads were tunneled subcutaneously into Lead II position and fixed with surgical sutures. Closure of the abdomen and skin was followed by 7 days recovery period. […] Drug tests were performed on 8 rats used repeatedly according to a 4-way crossover design, carried out in three sessions. In each session, all the 8 animals were treated and tested on 4 occasions with 3- or 4-days washout periods between treatments (i.e. Mondays and Thursdays in two weeks), so that on each occasion 4 pairs of rats were treated with 4 types of treatment (vehicle control, test substance A, test substance B and combination A+B), and during the 4 occasions all the animals were given all the 4 types of treatment according to a Latin-square 4-way crossover design. In the three consecutive 2-week-long sessions, three dose levels of test substances were tested in an escalating order. […] For evaluation and data reduction, pre-dose 10-min, post-dose 30-min segment averages were calculated and plotted (FIG. 5). […] None of the test substance treatments caused any apparent effect on the body temperature as compared to vehicle control data. The stress of handling and oral gavage administration caused a transient increase in both blood pressure and heart rate as indicated by changes in the vehicle treated data. However, after these transient changes, blood pressure and heart rate returned to the pre-dose level in the vehicle control group. […] For within session statistical analysis of differences from vehicle control, one-way ANOVA followed by Dunnett's test was used.

[4] = tested on: face allodynia in the infraorbital nerve ligation model; assay: Partial infraorbital nerve ligation model, reversal of face allodynia (head withdrawal threshold, von Frey); format: in vivo; details: Rattus norvegicus, po; per os; mean (S.E.M.); individual maximum post-dose reversals; combination in terms of doses of the individual components; read-out: ED50 (effective dose causing 50% reversal of the allodynia)
Method: Infraorbital nerve ligation models, either by partial ligation or by the loose ligation of the whole nerve (chronic constriction injury) have been used as models of trigeminal neuralgia or trigeminal neuropathic pain. […] Male Sprague-Dawley rats weighing 200-220 g at surgery and 290-390 g at the time of testing were used. As primary read-outs of tactile pain sensitivity of the face, head withdrawal thresholds were measured by repeated stimulations using von Frey filaments (Touch Test Sensory Probes, Stoelting®). Before surgery, the rats were habituated to the testing for two weeks, first by handling (for 2 days) and then by repeated touching with von Frey filaments and finally determination of 50% head withdrawal thresholds (HWT) on three consecutive days. Rats with HWT<10 g at 2 out of 3 pre-surgery tests were not enrolled in the study. Sensitivity of the orofacial region was tested using calibrated von Frey filaments, with a series of filaments with bending force ranging between 0.4-14.8 g. […] HWTs were determined using Chaplan's up-down method, starting with the filament of 2 g bending force. […] The evaluated post-dose data (HWTs in gram) were converted to percent reversals, taking the simultaneous post-dose average HWT value of the vehicle treated group as 0% and the pre-surgery average value of animals involved in the test substance-treated group as 100%.

[5] = Pharmacokinetic interaction study of lisinopril and memantine; format: in vivo; details: rat, serum
Method: The statistical significance of differences between corresponding solo treatment and combination treatment mean values was evaluated by Student's unpaired t-test. The areas under the curve between TO (time of dosing) and last tested timepoint (135 min) were also calculated to assess the drug exposures in each animal (Table 2).

[6] = tested on: periorbital allodynia in the dural inflammation model; assay: Dural inflammation (inflammatory soup) model, reversal of periorbital allodynia (periorbital threshold, von Frey); format: in vivo, rat; details: 90 min post-dose; for reversal of allodynia at the medium dose level: solo 0.6 mg/kg per os
Source text: Male Sprague-Dawley rats weighing approximately 250 g at surgery were used. Rats were habituated and trained for 1-2 weeks and then fitted with a stainless-steel cannula (22GA, Plastics One) under isoflurane anesthesia. […] Special attention was given not to disturb the dura. A custom flange guide cannula (22GA, Plastics One) was inserted into the hole (cut 0.5 mm below pedestal). The cannula was fixed to the bone with small screws and dental cement. A dummy that extended just past the end of the guide cannula was inserted to prevent scar tissue from forming, and thus clogging the cannula. Animals were allowed 1-2 weeks of recovery before testing and infusions began. Periorbital thresholds (POT) were monitored 7-10 days after surgery to ensure the thresholds generally returned to pre-surgery baselines.
While under isoflurane anesthesia, the infusion procedure proceeded over 5 consecutive days in which a Hamilton syringe attached to an infusion pump was used to deliver 15 μL of inflammatory soup over 8 minutes, at a rate of 1.759 μL/min. The Hamilton syringe was connected to tubing with a custom cannula injector at the tip; the syringe, tubing line, and injector were filled to the tip with inflammatory soup solution. The custom cannula injector was inserted into the flange cannula and the infusion started. The inflammatory soup contained 2 mM histamine, 2 mM bradykinin, 2 mM serotonin, and 0.2 mM prostaglandin E2 dissolved in saline.
Only animals that developed sustained hypersensitivity and satisfied the periorbital sensitivity criteria (POT<2.5 g) were enrolled into the study and each week into test groups.
Sensory testing was performed on testing days using von Frey filaments (Stoelting®, Wood Dale, Illinois) with reproducible calibrated buckling forces varying from 0.4-10 g utilizing Chaplan's up-down method. The specific fibers utilized were 3.61 (0.4 g), 3.84 (0.6 g), 4.08 (1 g), 4.31 (2 g), 4.56 (4 g), 4.74 (6 g), 4.93 (8 g), and 5.07 (10 g); 4.31 (2 g) was the starting fiber. Allodynia was tested by gently restraining the rat in the investigator's hand by holding the rat in one hand with fingers just behind the left forepaw, keeping the animal pressed against the investigator's chest. Fibers were applied by perpendicularly touching the rostral portion of the periorbital region (below the lower eye margin close to the rostral corner) causing slight buckling of the filament for approximately 5 seconds. Based on the response pattern and the force of the final filament, the withdrawal threshold (g) was calculated.
On testing days, a blinded investigator tested periorbital sensitivity pre-dose, 45 min, 90 min, and 135 min after drug administration. […]

[7] = dose 0.3 mg/kg (combination containing the same dose of lisinopril)
[8] = dose 1 mg/kg (combination containing the same dose of lisinopril)
[9] = dose 3 mg/kg (combination containing the same dose of lisinopril)
[10] = Lisinopril 0.3 mg/kg, read-out: Concentration of Lisinopril, Mean
[11] = Lisinopril 1 mg/kg, read-out: Concentration of Lisinopril, Mean
[12] = Memantine 0.3 mg/kg, read-out: Concentration of Memantine, Mean
[13] = Memantine 1 mg/kg, read-out: Concentration of Memantine, Mean

concentration at 45 min [5, 10]: 5.75 ng/mL
concentration at 90 min [5, 10]: 9.44 ng/mL
concentration at 135 min [5, 10]: 14.2 ng/mL
concentration at 45 min [5, 11]: 9.86 ng/mL
concentration at 90 min [5, 11]: 43 ng/mL
concentration at 135 min [5, 11]: 57 ng/mL
AUC(0-t) ([5]; dose 0.3 mg/kg, read-out: Mean AUC (AUC0-135 min) of Lisinopril, Solo (converted)): 16.7 ng·h/mL
AUC(0-t) ([5]; dose 1 mg/kg, read-out: Mean AUC (AUC0-135 min) of Lisinopril, Solo (converted)): 61 ng·h/mL
Compound: NCCCC[C@H](N[C@@H](CCc1ccccc1)C(=O)O)C(=O)N1CCC[C@H]1C(=O)O [Lisinopril, (S)-1-[N2-(1-carboxy-3-phenylpropyl)-L-lysyl]-L-proline]
effect on the locomotor activity ([1]; any of the three dose levels: 0.6, 2, 6 mg/kg solo, 0.3+0.3, 1+1, 3+3 mg/kg combination, per os): neither lisinopril nor the combination exerted a significant effect
effect on rotarod performance (latency to fall off) [2]: neither lisinopril, nor memantine, nor their combination had a significant effect
suppression of the blood pressure ([3]; almost dose-independently, 0.3-3 mg/kg): about 7 mmHg
Heart rate; difference from Vehicle treated, Mean [3, 7]: 8.37 beats per min
Mean arterial blood pressure; difference from Vehicle treated, Mean [3, 7]: −7.05 mmHg
Heart rate; difference from Vehicle treated, Mean [3, 8]: 20.62 beats per min
Mean arterial blood pressure; difference from Vehicle treated, Mean [3, 8]: −7.47 mmHg
Heart rate; difference from Vehicle treated, Mean [3, 9]: 29.39 beats per min
Mean arterial blood pressure; difference from Vehicle treated, Mean [3, 9]: −7.72 mmHg
ED50 [4]: 0.488 mg/kg
ED40 (effective dose causing 40% reversal of the allodynia) ([6]; per os): 1.85 mg/kg
reversal of allodynia at the medium dose level [6]: around 15%

effect on the locomotor activity ([1]; highest dose level (6 mg/kg per os)): significant increase
effect on the locomotor activity ([1]; two lower dose levels (0.6 and 2 mg/kg per os)): not at the two lower dose levels
concentration at 45 min [5, 12]: 5.58 ng/mL
concentration at 90 min [5, 12]: 8.46 ng/mL
concentration at 135 min [5, 12]: 8.91 ng/mL
concentration at 45 min [5, 13]: 11.4 ng/mL
concentration at 90 min [5, 13]: 22.3 ng/mL
concentration at 135 min [5, 13]: 24.2 ng/mL
AUC(0-t) ([5]; dose 0.3 mg/kg, read-out: Mean AUC (AUC0-135 min) of Memantine, Solo (converted)): 13.9 ng·h/mL
AUC(0-t) ([5]; dose 1 mg/kg, read-out: Mean AUC (AUC0-135 min) of Memantine, Solo (converted)): 34.4 ng·h/mL
Compound: CC12CC3CC(C)(C1)CC(N)(C3)C2 [Memantine, 1-amino-3,5-dimethyladamantane]
effect on rotarod performance (latency to fall off) [2]: neither lisinopril, nor memantine, nor their combination had a significant effect
effect on hemodynamic parameters (blood pressure, heart rate) ([3]; 0.3, 1 and 3 mg/kg, combination compared with lisinopril): no effect
Heart rate; difference from Vehicle treated, Mean [3, 7]: −2.87 beats per min
Mean arterial blood pressure; difference from Vehicle treated, Mean [3, 7]: −1.39 mmHg
Heart rate; difference from Vehicle treated, Mean [3, 8]: −8.51 beats per min
Mean arterial blood pressure; difference from Vehicle treated, Mean [3, 8]: 0.11 mmHg
Heart rate; difference from Vehicle treated, Mean [3, 9]: −3.03 beats per min
Mean arterial blood pressure; difference from Vehicle treated, Mean [3, 9]: −0.13 mmHg
ED50 [4]: 0.478 mg/kg
reversing effect on the allodynia (percent reversal) ([6]; per os 0.2, 0.6 and 2 mg/kg): ≤ 15%
reversal of allodynia at the medium dose level [6]: around 15%
